Experimental data taken from patent publication US6245790A, “Oxazole compounds useful as PGE2 agonists and antagonists” (Fujisawa Pharmaceutical Co., Ltd., priority 1997, dated 2001).

What was measured:
[1] = biological target: T1, prostanoide receptor subtype (human EP4) (Homo sapiens, UniProt P35408); test: Binding assay using expression of prostanoide receptor subtype ([3H]-PGE2 competition, COS-7 membrane fraction); settings: compound at 10 μM, 1 hour at 30° C., COS-7 cells transfected human EP4
T1 construct: expressed in transfected cells; host or cells: COS-7
T1 sequence (P35408 whole entry): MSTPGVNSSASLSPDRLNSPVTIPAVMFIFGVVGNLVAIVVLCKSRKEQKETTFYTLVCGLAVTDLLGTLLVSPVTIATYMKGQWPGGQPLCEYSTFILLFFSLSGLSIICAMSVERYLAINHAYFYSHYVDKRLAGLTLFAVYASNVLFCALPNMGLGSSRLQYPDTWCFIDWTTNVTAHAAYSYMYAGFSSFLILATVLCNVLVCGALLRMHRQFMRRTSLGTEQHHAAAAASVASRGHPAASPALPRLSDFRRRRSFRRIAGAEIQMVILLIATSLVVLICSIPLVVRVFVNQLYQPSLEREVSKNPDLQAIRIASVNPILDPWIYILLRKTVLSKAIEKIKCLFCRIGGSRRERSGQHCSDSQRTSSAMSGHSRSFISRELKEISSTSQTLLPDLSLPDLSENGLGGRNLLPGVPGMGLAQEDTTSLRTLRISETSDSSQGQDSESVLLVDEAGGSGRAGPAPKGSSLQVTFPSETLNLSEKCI
Description: Binding Assay Using Expression of Prostanoide Receptor Subtype
The membrane fraction was prepared using COS-7 cells transfected prostanoide receptor subtype (human EP4).
The Standard assay mixture contained membrane fraction, [^3 H]-PGE2 in final volume of 0.25 ml was incubated for 1 hour at 30° C. The reaction was terminated by that the mixture was rapidly filtered through a glass filter (GF/B). Then the filter was washed by 4 ml of ice-cold buffer at two times. The radioactivity associated with the filter was measured by liquid scintillation counting.
In the experiment for competition of specific [^3 H]-PGE2 was added at a concentration of 10 μM. The following buffer was used in all reactions.
Buffer: 20 mM Mes (pH 6.0), 1 mM EDTA, 10 mM MgCl2

Mouse B Lymphocytes = test: Effect on PGE2-induced IgE and IgG1 secretion in mouse B lymphocytes (LPS and IL-4, ELISA); type: cell-based, mouse (BDF1); settings: + 10^-5 M Test Compound, LPS and IL-4, 6 days, Mean ± S.E.M. (n = 4)
Description: Effect on IgE and IgG1 Secretion in Mouse B Lymphocytes
Inhibitory properties of a test compound against PGE2 -induced IgE and IgG1 secretion in isolated resting B lymphocytes of mice were tested. Resting mouse B lymphocytes were isolated from spleens of 12-week-old BDF1 male mice (Clea Japan Inc.) using adherent cell depletion, negative selection by FITC-anti-Thy 1.2 (30H12), FITC-anti-CD4 (GK1.5), FITC-anti-CD11b (M1/70) and FITC-anti-CD8a (5.-6.7) (Pharmingen) with anti-FITC Ab coating magnetic beads (PerSpective Daiagnostics) and Percoll gradient (Pharmacia). Resting B lymphocytes were cultured in flat-bottomed96-well microtiter plates (Becton Dickinson) at 1×10^6 cells per ml and preincubated with a test compound or DMSO control for 30 minutes. Then PGE2 were added at 10^-6 M. After 1 hour, LPS and IL-4 were added and incubated at 37° C. in a humidified atmosphere with 5% CO2. After 6 days, supernatants were collected and IgE and IgG1 were measured by the ELISA.

inhibition at 10 µM [1] [%]	Structure (SMILES)	IgG1 secretion (Mouse B Lymphocytes; + 10^-6 M PGE2, # p < 0.01 v.s. Control (-PGE2)) [ng/mL]	IgE secretion (Mouse B Lymphocytes; + 10^-6 M PGE2, * p < 0.01 v.s. Control (+10^-6 M PGE2)) [ng/mL]	IgE secretion (Mouse B Lymphocytes; -PGE2) [ng/mL]	IgG1 secretion (Mouse B Lymphocytes; -PGE2) [ng/mL]
> 80	COc1cccc(C[C@@H]2CCC=C2c2nc(-c3ccccc3)c(-c3ccccc3)o2)c1 [Test Compound (1), (S)-2-(4,5-Diphenyloxazol-2-yl)-1-(3-methoxybenzyl)-2-cyclopentene]	–	–	–	–
> 80	O=C(O)c1ccc(C[C@@H]2CCCC=C2c2nc(-c3ccccc3)c(-c3ccccc3)o2)cc1 [Test Compound (2), (S)-4-{[2-(4,5-Diphenyloxazol-2-yl)-2-cyclohexen-1-yl]-methyl}benzoic acid]	–	–	–	–
> 80	NC(=O)COc1cccc(C[C@@H]2CCCC=C2c2nc(-c3ccccc3)c(-c3ccccc3)o2)c1 [Test Compound (3), (S)-{3-{[2-(4,5-Diphenyloxazol-2-yl)-2-cyclohexen-1-yl]-methyl}phenoxy}actamide]	–	–	–	–
–	O=C([O-])c1cccc(C[C@@H]2CCCC=C2c2nc(-c3ccccc3)c(-c3ccccc3)o2)c1.[Na+] [Test Compound, Sodium (S)-3-{[2-(4,5-diphenyloxazol-2-yl)-2-cyclohexen-1-yl]methyl}benzoate]	1607.6 ± 150.9	37.0 ± 7.0	21.2 ± 5.7	1053.0 ± 176.2
